# Results from patent US12351877B2, “Systems and methods for determining a treatment course of action” (Arizona Board of Regents on Behalf of the University of …, priority 2018, dated 2025).
# Key:
# MCF7 cells = experiment: Live-cell TIRFM of SCABs before and after inhibiting contractility; assay type: cell-based, human; details: 25 uM ROCK inhibitor
# Excerpt: (§1) The relationship between cortical contractility and membrane motility dynamics was further examined. Using live-cell Total Internal Reflection Fluorescence Microscopy (TIRFM), SCABs at the leading edge of MCF7 and T47D cells were imaged before and after inhibiting contractility using the ROCK inhibitor, Y-27632; the actin cytoskeleton was labeled with iRFP-Lifeact, and SCABs with MLC-mRuby2. […] In addition, the existence of SCABs, their contractile nature, and their suppressive effects were validated in two types of epithelial cells: MDCK canine kidney epithelial cells, and Caco-2 human intestinal epithelial cells (FIGS. 3c and 3d). […] ER is potentially enriching for SCABs by inducing the expression of actin regulators that promote SCAB formation.
# T47D cells = experiment: as above; assay type: cell-based, human; details: 25 uM ROCK inhibitor
# Excerpt: as §1
# [1] = system: Caco-2 human intestinal epithelial cells; experiment: Leading edge kymography before and after dissolving SCABs; assay type: cell-based; details: 25 μM ROCK inhibitor, dissolution of SCABs
# Excerpt: as §1
# [2] = system: MDCK canine kidney epithelial cells; experiment: as above; assay type: cell-based; details: 25 μM ROCK inhibitor, dissolution of SCABs
# Excerpt: as §1
structure (smiles),measurement,setting,value
C[C@@H](N)[C@H]1CC[C@H](C(=O)Nc2ccncc2)CC1 [Y-27632],SCABs,MCF7 cells,dissolution of SCABs
same,MLC at the leading edge,MCF7 cells; MLC-mRuby2,loss of MLC
same,protrusive activity,MCF7 cells; iRFP-Lifeact,rapid increase
same,SCABs,T47D cells,dissolution of SCABs
same,MLC at the leading edge,T47D cells; MLC-mRuby2,loss of MLC
same,protrusive activity,T47D cells; iRFP-Lifeact,rapid increase
same,motility dynamics of the leading edge,[1],dramatically increased
same,motility dynamics of the leading edge,[1]; listed as ROCK inhibitor,increased
same,motility dynamics of the leading edge,[2],dramatically increased
same,motility dynamics of the leading edge,[2]; listed as ROCK inhibitor,increased
